Measurements from paper PMC4664946, “The standalone aminopeptidase PepN catalyzes the maturation of blasticidin S from leucylblasticidin S” (Scientific Reports, 2015).

What was measured:
PepN1 = biological target: T1, PepN1 (Streptomyces lividans, UniProt Q11010); assay: HPLC (UV […] nm) of hydrolysis to blasticidin S; assay type: biochemical; details: pH 5 to 9 tested; 30 °C; hydrolysis of the beta-amide bond to leucine
T1 construct: gene pepN; closely located to PepN2 gene
T1 sequence (Q11010 1-857): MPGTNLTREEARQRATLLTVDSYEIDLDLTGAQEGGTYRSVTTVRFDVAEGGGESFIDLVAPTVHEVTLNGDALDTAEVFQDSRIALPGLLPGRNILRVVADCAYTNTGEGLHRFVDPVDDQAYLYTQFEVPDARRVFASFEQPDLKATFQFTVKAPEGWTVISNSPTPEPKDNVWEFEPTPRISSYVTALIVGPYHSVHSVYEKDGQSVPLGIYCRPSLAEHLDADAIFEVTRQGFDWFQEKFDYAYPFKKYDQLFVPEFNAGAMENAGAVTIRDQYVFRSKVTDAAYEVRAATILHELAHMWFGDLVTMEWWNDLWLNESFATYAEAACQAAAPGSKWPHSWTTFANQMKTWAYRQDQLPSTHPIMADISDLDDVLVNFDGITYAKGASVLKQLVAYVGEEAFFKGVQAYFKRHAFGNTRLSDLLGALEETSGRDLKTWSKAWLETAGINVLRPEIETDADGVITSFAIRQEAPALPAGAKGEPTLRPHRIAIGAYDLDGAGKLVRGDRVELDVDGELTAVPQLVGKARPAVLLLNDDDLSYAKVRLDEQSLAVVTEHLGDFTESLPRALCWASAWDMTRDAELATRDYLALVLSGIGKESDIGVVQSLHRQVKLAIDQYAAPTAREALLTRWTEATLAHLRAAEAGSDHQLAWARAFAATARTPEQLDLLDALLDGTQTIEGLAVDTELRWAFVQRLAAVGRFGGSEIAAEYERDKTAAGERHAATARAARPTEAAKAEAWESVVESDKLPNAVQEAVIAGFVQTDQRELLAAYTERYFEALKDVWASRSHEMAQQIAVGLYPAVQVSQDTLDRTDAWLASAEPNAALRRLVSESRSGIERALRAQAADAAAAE

PepN = biological target: T2, PepN (Escherichia coli, UniProt P04825); assay: HPLC (UV […] nm) of hydrolysis to blasticidin S; assay type: biochemical; details: 30 °C; 1 μM LBS overnight; pH 5 to 9 tested
T2 sequence (P04825 2-870): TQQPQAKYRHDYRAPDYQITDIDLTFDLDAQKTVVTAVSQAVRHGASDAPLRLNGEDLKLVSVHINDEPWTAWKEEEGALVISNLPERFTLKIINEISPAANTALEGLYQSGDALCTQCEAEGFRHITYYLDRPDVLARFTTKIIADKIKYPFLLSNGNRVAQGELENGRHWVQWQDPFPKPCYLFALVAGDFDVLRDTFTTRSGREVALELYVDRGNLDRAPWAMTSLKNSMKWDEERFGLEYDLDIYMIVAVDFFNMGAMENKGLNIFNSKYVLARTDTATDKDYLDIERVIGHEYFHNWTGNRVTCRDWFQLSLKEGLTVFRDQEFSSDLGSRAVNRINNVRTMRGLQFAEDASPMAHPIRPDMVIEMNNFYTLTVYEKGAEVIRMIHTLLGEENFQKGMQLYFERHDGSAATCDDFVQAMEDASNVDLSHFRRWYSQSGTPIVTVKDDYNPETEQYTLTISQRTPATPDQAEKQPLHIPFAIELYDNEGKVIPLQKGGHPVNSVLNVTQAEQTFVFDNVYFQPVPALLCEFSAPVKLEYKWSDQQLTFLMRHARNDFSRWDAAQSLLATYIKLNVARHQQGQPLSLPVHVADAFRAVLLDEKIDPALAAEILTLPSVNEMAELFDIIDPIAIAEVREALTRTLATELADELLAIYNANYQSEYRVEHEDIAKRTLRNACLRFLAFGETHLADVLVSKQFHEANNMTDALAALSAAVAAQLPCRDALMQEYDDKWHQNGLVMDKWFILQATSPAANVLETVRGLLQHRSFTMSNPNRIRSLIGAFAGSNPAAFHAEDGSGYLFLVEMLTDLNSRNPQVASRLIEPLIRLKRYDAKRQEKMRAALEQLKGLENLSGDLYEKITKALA

## CC(C)C[C@H](N)C(=O)N[C@@H](CCN(C)C(=N)N)CC(=O)N[C@H]1C=C[C@H](n2ccc(N)nc2=O)O[C@@H]1C(=O)O [LBS, leucylblasticidin S]
PepN1
  HPLC (UV 272 nm) of hydrolysis to blasticidin S: PepN and PepN1 exhibited similar LBS hydrolyzing efficiency
PepN
  HPLC (UV 272 nm) of hydrolysis to blasticidin S: PepN and PepN1 exhibited similar LBS hydrolyzing efficiency
